Among the data in patent US20090082367A1, “TRIAZOLE DERIVATIVE OR A SALT THEREOF” (ASTELLAS PHARMA INC., priority 2006, published 2009) are IC50, blood glucose-lowering action and triglyceride-lowering action values, retold here.

Experiment [1] has as its target T1, human recombinant 11β-HSD1 (Homo sapiens, UniProt P28845).
T1 construct: made in house
Description: Measuring test of human 11β-HSD1-inhibitory activity (HTRF cortisol detection). Format: biochemical. Particulars: human recombinant 11β-HSD1, 20 nM cortisone, 40 μM NADPH, pH 6.6, room temperature 1 hour. As for the experimental part: The procedure for measuring 11β-HSD1-inhibitory activity is as follows. In this connection, the enzyme reaction and measurement were carried out using a 384-well plate. The enzyme was prepared in accordance with a reference (Walker E. A. et al., Journal of Biological Chemistry, 2001, vol. 276, p. 21343-21350). The reaction was carried out by adding the compound to be tested having varied concentration to a reaction liquid consisting of 10 mM phosphate buffer (pH 6.6), 20 nM cortisone, 40 μM reduced nicotinamide adenine dinucleotide phosphate (NADPH) and human recombinant 11β-HSD1, and then incubating at room temperature for 1 hour (10 μl/well). The compound to be tested was prepared by dissolving in dimethyl sulfoxide (DMSO) to a DMSO concentration of 1% in the reaction liquid. After the enzyme reaction, the enzyme inhibitory activity was measured by detecting cortisol using a homogeneous time-resolved fluorescence method (HTRF). Each of the XL-665-labeled cortisol containing 400 μM carbenoxolone and cryptate-labeled cortisol antibody (CIS bio international) was added in 5 μl/well portions and incubated at room temperature for 2 hours, and then the fluorescence intensity was measured using a fluorophotometer (trade name: Discovery, Perkin Elmer), and the enzyme inhibitory activity was calculated from the fluorescence intensity ratio at two wavelengths (665 nm/620 nm).
(§1) The measured result was calculated by averaging the values of 3 wells of the same condition. The ratio when DMSO was added instead of the compound to be tested was regarded as 0% and the ratio when 11β-HSD1 or 11β-HSD2 was not added was regarded as 100%, thereby calculating 50% inhibition concentration of the compound to be tested as IC50 of the compound inhibitory activity.

The target in experiment [2] is T2, human recombinant 11β-HSD2 (Homo sapiens, UniProt P80365).
T2 sequence (P80365 1-405): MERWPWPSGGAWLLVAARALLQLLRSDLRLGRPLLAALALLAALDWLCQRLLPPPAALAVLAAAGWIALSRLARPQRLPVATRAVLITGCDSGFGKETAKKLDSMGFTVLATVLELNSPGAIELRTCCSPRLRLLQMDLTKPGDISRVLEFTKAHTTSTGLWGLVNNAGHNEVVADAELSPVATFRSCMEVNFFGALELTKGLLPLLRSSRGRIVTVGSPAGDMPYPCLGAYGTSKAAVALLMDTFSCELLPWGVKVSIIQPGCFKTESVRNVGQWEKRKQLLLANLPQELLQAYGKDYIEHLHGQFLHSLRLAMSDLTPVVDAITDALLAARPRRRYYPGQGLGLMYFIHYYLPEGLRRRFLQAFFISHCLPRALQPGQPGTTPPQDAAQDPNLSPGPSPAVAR
The experiment is described as follows: Measuring test of human 11β-HSD2-inhibitory activity (HTRF cortisol detection). Type of experiment: biochemical. As to conditions: human recombinant 11β-HSD2, 200 nM cortisol, 200 μM NAD, pH 8.0, 37° C. 2 hours. Here is the method: Measurement of the 11β-HSD2 activity was carried out by the same method of the 11β-HSD1 activity measurement, except for the enzyme reaction conditions. The enzyme reaction was carried out by adding the compound to be tested having varied concentration to a reaction liquid consisting of 40 mM Tris-HCl buffer (pH 8.0), 200 nM cortisol, 200 μM nicotinamide adenine dinucleotide (NAD) and human recombinant 11β-HSD2, and then incubating at 37° C. for 2 hours (10 μl/well).
as §1
(In TR-FRET formats the signal depends on donor and acceptor labels being close together.)

Experiment [3] concerns ob/ob male mice. Description: Ob/ob mouse blood glucose-lowering test. Format: in vivo. Particulars: oral 10 mg/kg bid for 9 days, non-fasting, 12 hours after final administration, n=6. As for the experimental part: (§2) Using 6% 2-hydroxypropyl-β-cyclodextrin as the solvent, a compound liquid was prepared. Blood glucose values were measured under non-fasting using ob/ob male mice of 9 weeks of age (blood glucose value, 300 mg/dl or more), and then arrangement into groups was carried out at random in such a manner that their blood glucose values became uniform. The compound to be tested was repeatedly orally administered (10 mg/kg, bid) twice a day for 9 days, and blood glucose values after 12 hours of the final administration were measured (n=6). The blood glucose value was measured by carrying out colorimetric determination of the amount of glucose (mg/dl) in heparin blood plasma obtained by collecting blood in a heparin-coated glass capillary and subsequently centrifuging it.

Experiment [4] relates to ob/ob male mice. The experiment is described as follows: Ob/ob mouse triglyceride-lowering test. Format: in vivo. As to conditions: oral 10 mg/kg bid for 9 days, non-fasting, 12 hours after final administration, n=6. Here is the method: as §2, with “Triglyceride” for “Blood glucose”, “age,” for “age (blood glucose value, 300 mg/dl or more),”, “triglyceride” for “blood glucose”, “Triglyceride” for “The blood glucose value”, “triglyceride” for “glucose”

One may read the IC50 as the concentration needed to halve the response being measured.

Molecules are shown by their SMILES.

T1 sequence (P28845 whole entry): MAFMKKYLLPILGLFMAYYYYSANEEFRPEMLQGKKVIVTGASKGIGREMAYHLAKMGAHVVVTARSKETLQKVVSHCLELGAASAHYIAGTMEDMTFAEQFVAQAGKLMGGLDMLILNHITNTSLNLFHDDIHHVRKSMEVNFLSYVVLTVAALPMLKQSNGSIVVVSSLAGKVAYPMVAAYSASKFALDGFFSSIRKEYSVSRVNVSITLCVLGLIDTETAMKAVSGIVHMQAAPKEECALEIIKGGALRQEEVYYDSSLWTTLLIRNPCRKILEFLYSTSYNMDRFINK

As to `Cn1c(C(C)(C)C)nnc1C(C)(C)c1ccc(Cl)s1` [Example 281], the half-maximal inhibitory concentration (IC50) in experiment [1] was 0.0052 µM; in experiment [2], above 3 µM.

On to `CC(C)(c1ccc(Br)s1)c1nnc(C2CC2)n1CCc1c(F)cccc1F` [Example 167], for which the values for the IC50 in experiment [1] and in experiment [2] were 0.07 µM and above 30 µM, respectively. In addition, the blood glucose-lowering action with ob/ob male mice [3] was 24%.

Take `CC(C)(c1ccc(C(F)(F)F)s1)c1nnc(C2CC2)n1C1CC1` [Example 169]: the IC50 was 0.024 µM in experiment [1] and above 10 µM in experiment [2].

`CC(C)(c1ccsc1)c1nnc(C2CCC2)n1C1CC1` [Example 173]: the IC50 in experiment [1] was 0.012 µM; in experiment [2], above 10 µM.

Take `CC(C)(c1nnc(C2CC2)n1C1CC1)n1cccc1Cl` [Example 9, 3-[1-(2-chloro-1H-pyrrol-1-yl)-1-methylethyl]-4,5-dicyclopropyl-4H-1,2,4-triazole]: the values for the half-inhibitory concentration (IC50) in experiment [1] and in experiment [2] were 0.062 µM and above 30 µM, respectively.

For `Cn1c(C2(C)CC2)nnc1C(C)(C)c1ccc(Cl)s1` [Example 283], the results for the IC50 in experiment [1] and in experiment [2] were 0.0024 µM and above 3 µM, respectively.

Regarding `CC(C)(c1cc(Br)cs1)c1nnc(C2CC2)n1C1CC1` [Example 77], the IC50 in experiment [1] is 0.012 µM; in experiment [2] it was above 10 µM.

With `Brc1ccn(C2(c3nnc(C4CC4)n3C3CC3)CCC2)c1` [Example 213], the IC50 in experiment [1] is 0.041 µM; in experiment [2], above 10 µM.

Turning to `CC(C)(c1ccsc1)c1nnc(C2CC2)n1C1CC1` [Example 172], the IC50 in experiment [1] was 0.019 µM; in experiment [2], above 10 µM. In the experiment on ob/ob male mice [3], this compound had a blood glucose-lowering action of 27%.

As for `CC(C)(c1sc(C(F)(F)F)cc1F)c1nnc(C2CC2)n1C1CC1` [Example 280], the values for the IC50 in experiment [1] and in experiment [2] were 0.0047 µM and above 3 µM, respectively. The compound also gave a triglyceride-lowering action in the experiment with ob/ob male mice [4] of 42%. This compound gave a blood glucose-lowering action in the experiment with ob/ob male mice [3] of 35%.

Regarding `CC(C)(c1cccc(Cl)n1)c1nnc(C2CC2)n1CCc1ccccc1` [Example 85], the values for the IC50 in experiment [1] and in experiment [2] were 0.034 µM and above 10 µM, respectively.

Turning to `CN(C1CCC1)C(C)(C)c1nnc(C2CC2)n1C1CC1` [Example 57], the figures for the IC50 in experiment [1] and in experiment [2] were 0.07 µM and above 30 µM, respectively.

Consider `CC(C)(c1ccc(Br)s1)c1nnc(C2CC2)n1C1CC1` [Example 3, 3-[1-(5-bromo-2-thienyl)-1-methylethyl]-4,5-dicyclopropyl-4H-1,2,4-triazole], for which the half-inhibitory concentration (IC50) in experiment [1] is 0.0079 µM; in experiment [2] it was above 3 µM. The triglyceride-lowering action in the experiment on ob/ob male mice [4] was 50%. In the experiment on ob/ob male mice [3], the blood glucose-lowering action came to 27%.

Turning to `Fc1ccc(CCn2c(C3CC3)nnc2C2(c3ccccn3)CCC2)cc1` [Example 198], the IC50 in experiment [1] was 0.025 µM; in experiment [2], above 10 µM.

Take `CC(C)(c1ccccn1)c1nnc(C2CC2)n1CCc1c(F)cccc1F` [Example 154]: the 50% inhibitory concentration (IC50) in experiment [1] is 0.038 µM; in experiment [2], above 30 µM. Also, the blood glucose-lowering action with ob/ob male mice [3] is reported as 21%.
